Where two headings read alike, the source gives them in different places.
How the values were obtained:
EGFR L792H = EGFR L792H (Homo sapiens, UniProt P00533, L792H); experiment: Kinase inhibition assay (HTRF)
Experimental: (§2) At room temperature, 5 μL each of kinase, peptide substrate (TK-substrate-biotin), and ATP were added to the plate and incubated at room temperature for 40 minutes.

[1] = molecular target: EGFR Del19/C797S dual mutations (Homo sapiens, UniProt P00533, C797S, form not given); experiment: Kinase inhibition assay (HTRF)
EGFR C797S = EGFR C797S (Homo sapiens, UniProt P00533, C797S); experiment: Kinase inhibition assay (HTRF)
Experimental: as §2

Ba/F3 Del19/C797S cells = experiment: Antiproliferative activity assay (CellTiter-Glo, 72 h); format: cell-based; conditions: for IC50: Mus musculus
Experimental: (§1) After incubating the cells in a 5% CO2 incubator at 37° C. for 72 hours, 25 μL of CellTiter-Glo reagent (CTG) was added to each well and the plate was gently shaken and incubated in a 5% CO2 incubator at 37° C. (protected from light) for 30 minutes. […] was measured using the Envision reader.

Ba/F3 L858R/C797S cells = experiment: as above; format: cell-based; conditions: for IC50: Mus musculus
Experimental: as §1

[2] = molecular target: EGFR L858R/C797S dual mutations (Homo sapiens, UniProt P00533, C797S/L858R); experiment: Kinase inhibition assay (HTRF)
Experimental: as §2

Row | SMILES | IC50 (EGFR L792H) [nM] | Relative bioactivity, times that of osimertinib (EGFR L792H; EGFR L792H kinase) [times] | Relative potency % (EGFR L792H; EGFR L792H kinase) [%] | IC50 [1] [nM] | Relative bioactivity, times that of osimertinib [1] [times] | Relative potency % [1] [%] | IC50 (EGFR C797S) [nM] | Relative bioactivity, times that of osimertinib (EGFR C797S; EGFR C797S kinase) [times] | Relative potency % (EGFR C797S; EGFR C797S kinase) [%] | Relative bioactivity, times that of osimertinib (Ba/F3 Del19/C797S cells; Ba/F3 Del19/C797S) [times] | Relative potency % (Osimertinib IC50/Quinazoline derivative (I) IC50×100%) (Ba/F3 Del19/C797S cells; Ba/F3 Del19/C797S) [%] | IC50 (Ba/F3 Del19/C797S cells; BaF3, Ba/F3 Del19/C797S, 72 hours, CellTiter-Glo, read-out: IC50) [nM] | Relative bioactivity, times that of osimertinib (Ba/F3 L858R/C797S cells; Ba/F3 L858R/C797S) | Relative potency % (Osimertinib IC50/Quinazoline derivative (I) IC50×100%) (Ba/F3 L858R/C797S cells; Ba/F3 L858R/C797S) [%] | IC50 (Ba/F3 L858R/C797S cells; BaF3, Ba/F3 L858R/C797S, 72 hours, CellTiter-Glo, read-out: IC50) [nM] | IC50 [2] [nM] | Relative bioactivity, times that of osimertinib ([2]; EGFR L858R/C797S kinase) [times] | Relative potency % ([2]; EGFR L858R/C797S kinase) [%] | IC50 (Ba/F3 Del19/C797S cells; BaF3, 72 h) [nM] | IC50 (Ba/F3 L858R/C797S cells; BaF3, 72 h) [nM]
1 | C#Cc1cccc(Nc2ncnc3cc(OC)c(O[C@@H]4CCN(C)CC4(F)F)cc23)c1F [Quinazoline derivative (I), (R)-6-[(3,3-difluoro-1-methylpiperidin-4-yl)oxy]-N-(3-ethynyl-2-fluorophenyl)-7-methoxyquinazolin-4-amine] | 3.42 | ~49 | 4918 | 0.131 | ~498 | 49809.0 | 0.95 | > 1052 | >105263 | ~4900 | 490370.4 | 0.27 | approximately 490 times | 49004.3 | 2.56 | 0.037 | ~93118 | 9311751.9 | – | –
2 | C=CC(=O)Nc1cc(Nc2nccc(-c3cn(C)c4ccccc34)n2)c(OC)cc1N(C)CCN(C)C [Osimertinib, osimertinib, reference compound] | – | – | – | – | – | – | – | – | – | – | – | – | – | – | – | – | – | – | 1320 | 1260

From patent US20260069592A1 (WEISHANG (SHANGHAI) BIO-PHARMACEUTICAL CO., LTD., priority 2023, published 2026)
